This note sets out measurements from the supplement of paper PMC10307832.

What all share (experiment): relative viability (nuclei count vs DMSO), 5 days (fraction); higher = more cells survive
Compound in test [1]: NS(=O)(=O)OC[C@@H]1C[C@@H](n2ccc3c(N[C@H]4CCc5ccccc54)ncnc32)C[C@@H]1O [MLN4924] + CCNC(=O)c1noc(-c2cc(C(C)C)c(O)cc2O)c1-c1ccc(CN2CCOCC2)cc1 [Luminespib] (partner 0.01 µM)
Summed up: (§1)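 A single step with final 0.05% Triton X-100, 1% formaldehyde and 1 ug/ml Hoechst fixed the cells and stained nuclei 5 days after treatment. Lung cancer cell lines in 1536-well plates had been treated by pin tool the day after seeding with one drug alone or a fixed anchor-drug dose plus five library-drug doses (not always all listed) in √10 steps, and nuclei were counted on 4× images. Relative viability is the ratio of nuclei in treated wells to nuclei in vehicle wells, taken as the median of duplicate plates.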

Compound in test [2]: NS(=O)(=O)OC[C@@H]1C[C@@H](n2ccc3c(N[C@H]4CCc5ccccc54)ncnc32)C[C@@H]1O [MLN4924] + COc1cccc2cc(-c3nc([C@H]4CC[C@H](C(=O)O)CC4)n4ncnc(N)c34)[nH]c12 [OSI-027] (partner 0.5 µM)
The gist of the method: as §1

Compound in test [3]: NS(=O)(=O)OC[C@@H]1C[C@@H](n2ccc3c(N[C@H]4CCc5ccccc54)ncnc32)C[C@@H]1O [MLN4924] + Nc1nc2[nH]cc(CCc3ccc(C(=O)N[C@@H](CCC(=O)O)C(=O)O)cc3)c2c(=O)[nH]1 [Pemetrexed] (partner 0.2 µM)
The gist of the method:
as §1

Compound in test [4]: CC[C@H](C)N1C=C(C2=C(C=C(C=C21)C3=CN=C(C=C3)N4CCNCC4)C(=O)NCC5=C(C=C(NC5=O)C)C)C [GSK126] + C[C@]1(O)C[C@@H](c2nc(-c3ccc4ccc(-c5ccccc5)nc4c3)c3c(N)nccn32)C1 [Linsitinib] (partner 1 µM)
The gist of the method: as §1

Consider NCI-H2009, for which the relative viability came to 0.924 in test [1] (first compound 0.04 µM); 0.553 in test [1] (first compound 0.1265 µM); 0.292 in test [1] (first compound 0.4 µM); 0.18 in test [1] (first compound 1.265 µM); 0.139 in test [1] (first compound 4 µM); 0.249 in test [2] (first compound 0.04 µM). Besides, the relative viability in test [2] (first compound 0.1265 µM) came to 0.149; in test [2] (first compound 0.4 µM), 0.187; in test [2] (first compound 1.265 µM) it was 0.0664; in test [2] (first compound 4 µM) it was 0.0797; in test [3] (first compound 0.04 µM) it was 0.941; in test [3] (first compound 0.1265 µM) it was 0.884. Further, the relative viability stood at 0.218 in test [3] (first compound 0.4 µM); 0.133 in test [3] (first compound 1.265 µM); 0.0755 in test [3] (first compound 4 µM); 1.3 in test [4] (first compound 0.08 µM); 1.18 in test [4] (first compound 0.253 µM); 1.27 in test [4] (first compound 0.8 µM). Further, the figures for the relative viability in test [4] (first compound 2.53 µM) and in test [4] (first compound 8 µM) were 1.18 and 1.2, respectively.

For NCI-H2023, the relative viability in test [1] (first compound 0.04 µM) worked out at 0.651; in test [1] (first compound 0.1265 µM), 0.539; in test [1] (first compound 0.4 µM), 0.179; in test [1] (first compound 1.265 µM) it was 0.0673; in test [1] (first compound 4 µM), 0.0714; in test [2] (first compound 0.04 µM) it was 0.383. For the same cell line, the relative viability in test [2] (first compound 0.1265 µM) was found to be 0.361; in test [2] (first compound 0.4 µM) it was 0.163; in test [2] (first compound 1.265 µM), 0.0645; in test [2] (first compound 4 µM) it was 0.0536; in test [3] (first compound 0.04 µM), 0.219; in test [3] (first compound 0.1265 µM), 0.234. For the same cell line, the relative viability amounted to 0.123 in test [3] (first compound 0.4 µM); 0.0635 in test [3] (first compound 1.265 µM); 0.09 in test [3] (first compound 4 µM); 0.778 in test [4] (first compound 0.08 µM); 0.679 in test [4] (first compound 0.253 µM); 0.644 in test [4] (first compound 0.8 µM). The relative viability in test [4] (first compound 2.53 µM) came to 0.757; in test [4] (first compound 8 µM) it was 0.755.

NCI-H2085: the relative viability in test [1] (first compound 0.04 µM) amounted to 0.422; in test [1] (first compound 0.1265 µM), 0.407; in test [1] (first compound 0.4 µM), 0.534; in test [1] (first compound 1.265 µM), 0.375; in test [1] (first compound 4 µM), 0.311; in test [2] (first compound 0.04 µM), 0.852. The relative viability in test [2] (first compound 0.1265 µM) is 0.746; in test [2] (first compound 0.4 µM) it was 0.635; in test [2] (first compound 1.265 µM), 0.512; in test [2] (first compound 4 µM), 0.307; in test [3] (first compound 0.04 µM), 0.916; in test [3] (first compound 0.1265 µM), 0.91. Also, the relative viability in test [3] (first compound 0.4 µM) was determined as 0.888; in test [3] (first compound 1.265 µM) it was 0.882; in test [3] (first compound 4 µM), 0.451; in test [4] (first compound 0.08 µM) it was 0.903; in test [4] (first compound 0.253 µM) it was 0.774; in test [4] (first compound 0.8 µM), 1.02. Also, the relative viability in test [4] (first compound 2.53 µM) turned out to be 0.89; in test [4] (first compound 8 µM) it was 1.02.

Turning to NCI-H2087, the relative viability in test [1] (first compound 0.04 µM) was 0.143; in test [1] (first compound 0.1265 µM), 0.148; in test [1] (first compound 0.4 µM), 0.139; in test [1] (first compound 1.265 µM) it was 0.129; in test [1] (first compound 4 µM), 0.0909; in test [2] (first compound 0.04 µM), 0.41. The relative viability in test [2] (first compound 0.1265 µM) was 0.498; in test [2] (first compound 0.4 µM), 0.516; in test [2] (first compound 1.265 µM), 0.14; in test [2] (first compound 4 µM), 0.104; in test [3] (first compound 0.04 µM), 0.639; in test [3] (first compound 0.1265 µM) it was 0.71. Also, the relative viability came to 0.562 in test [3] (first compound 0.4 µM); 0.118 in test [3] (first compound 1.265 µM); 0.0987 in test [3] (first compound 4 µM); 0.979 in test [4] (first compound 0.08 µM); 0.942 in test [4] (first compound 0.253 µM); 0.931 in test [4] (first compound 0.8 µM). The relative viability is 0.885 in test [4] (first compound 2.53 µM) and 0.967 in test [4] (first compound 8 µM).

NCI-H2126: the relative viability in test [1] (first compound 0.04 µM) is 0.898; in test [1] (first compound 0.1265 µM) it was 0.843; in test [1] (first compound 0.4 µM), 0.609; in test [1] (first compound 1.265 µM) it was 0.472; in test [1] (first compound 4 µM) it was 0.309; in test [2] (first compound 0.04 µM), 0.665. Moreover, the relative viability in test [2] (first compound 0.1265 µM) was determined as 0.75; in test [2] (first compound 0.4 µM), 0.59; in test [2] (first compound 1.265 µM), 0.407; in test [2] (first compound 4 µM) it was 0.346; in test [3] (first compound 0.04 µM), 0.659; in test [3] (first compound 0.1265 µM) it was 0.676. Also, the relative viability in test [3] (first compound 0.4 µM) came out at 0.435; in test [3] (first compound 1.265 µM) it was 0.278; in test [3] (first compound 4 µM), 0.281; in test [4] (first compound 0.08 µM), 0.759; in test [4] (first compound 0.253 µM), 0.732; in test [4] (first compound 0.8 µM), 0.725. Besides, the relative viability came out at 0.721 in test [4] (first compound 2.53 µM) and 0.713 in test [4] (first compound 8 µM).

For the cell line NCI-H2228, the relative viability was found to be 0.178 in test [1] (first compound 0.04 µM); 0.181 in test [1] (first compound 0.1265 µM); 0.195 in test [1] (first compound 0.4 µM); 0.19 in test [1] (first compound 1.265 µM); 0.113 in test [1] (first compound 4 µM); 0.611 in test [2] (first compound 0.04 µM). For the same cell line, the relative viability in test [2] (first compound 0.1265 µM) stood at 0.683; in test [2] (first compound 0.4 µM) it was 0.148; in test [2] (first compound 1.265 µM), 0.141; in test [2] (first compound 4 µM), 0.14; in test [3] (first compound 0.04 µM), 0.377; in test [3] (first compound 0.1265 µM) it was 0.32. Moreover, the relative viability came out at 0.213 in test [3] (first compound 0.4 µM); 0.0983 in test [3] (first compound 1.265 µM); 0.119 in test [3] (first compound 4 µM); 1.11 in test [4] (first compound 0.08 µM); 0.681 in test [4] (first compound 0.253 µM); 0.755 in test [4] (first compound 0.8 µM). Also, the results for the relative viability in test [4] (first compound 2.53 µM) and in test [4] (first compound 8 µM) were 0.708 and 0.542, respectively.

Turning to NCI-H2347, the relative viability came out at 0.397 in test [1] (first compound 0.04 µM); 0.351 in test [1] (first compound 0.1265 µM); 0.575 in test [1] (first compound 0.4 µM); 0.332 in test [1] (first compound 1.265 µM); 0.255 in test [1] (first compound 4 µM); 0.39 in test [2] (first compound 0.04 µM). The relative viability stood at 0.375 in test [2] (first compound 0.1265 µM); 0.354 in test [2] (first compound 0.4 µM); 0.214 in test [2] (first compound 1.265 µM); 0.29 in test [2] (first compound 4 µM); 0.376 in test [3] (first compound 0.04 µM); 0.438 in test [3] (first compound 0.1265 µM). Besides, the relative viability in test [3] (first compound 0.4 µM) was found to be 0.369; in test [3] (first compound 1.265 µM) it was 0.396; in test [3] (first compound 4 µM), 0.36; in test [4] (first compound 0.08 µM), 1.04; in test [4] (first compound 0.253 µM), 0.943; in test [4] (first compound 0.8 µM) it was 0.916. Besides, the relative viability was 0.885 in test [4] (first compound 2.53 µM) and 0.965 in test [4] (first compound 8 µM).
